Where two headings read alike, the source gives them in different places.
Key:
[1] = target: β2-adrenoreceptor (Homo sapiens, UniProt P07550); test: β2-adrenoreceptor binding potency, classical filtration binding assay
Source text: (§1) The β2 agonist activity, onset of action and duration of action of the agents of the invention may be tested using the guinea pig tracheal strip in vitro assay according to the procedure of R. A. Coleman and A. T. Nials, J. Pharmacol. Methods 1989, 21, 71.

[2] = target: β1-adrenoreceptor (Homo sapiens, UniProt P08588); test: β1-adrenoreceptor binding potency, classical filtration binding assay
Source text: as §1

[3] = read-out: Ki (β2) binding potency, classical filtration binding assay, first value of β2/β1 pair
[4] = read-out: Ki (β1) binding potency, classical filtration binding assay, second value of β2/β1 pair

Sequence of β1-adrenoreceptor (P08588 whole entry, species assumed): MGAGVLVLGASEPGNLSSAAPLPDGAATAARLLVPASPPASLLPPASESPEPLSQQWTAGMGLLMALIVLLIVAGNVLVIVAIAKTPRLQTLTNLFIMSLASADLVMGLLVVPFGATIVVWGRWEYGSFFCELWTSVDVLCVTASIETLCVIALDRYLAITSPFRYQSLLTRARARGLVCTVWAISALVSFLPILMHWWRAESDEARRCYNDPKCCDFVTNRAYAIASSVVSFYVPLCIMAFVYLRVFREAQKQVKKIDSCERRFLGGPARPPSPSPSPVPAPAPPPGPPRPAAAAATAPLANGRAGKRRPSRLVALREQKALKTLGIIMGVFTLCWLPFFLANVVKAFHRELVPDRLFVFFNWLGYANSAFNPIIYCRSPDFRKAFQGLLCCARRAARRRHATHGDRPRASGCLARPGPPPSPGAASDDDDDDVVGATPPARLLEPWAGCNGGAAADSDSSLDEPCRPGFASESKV

Ki [1]	Ki [2]	Compound	Ki [1, 3]	Ki [2, 4]
54 nM	50 nM	CCCCc1ccc2c(c1)CCC2NC[C@H](O)c1ccc(O)c2[nH]c(=O)ccc12 (mixture of isomers) [Example 3, 5-[R-2-(RS-5-butylindan-1-ylamino)-1-hydroxyethyl]-8-hydroxy-1H-quinolin-2-one]	–	–
6 nM	115 nM	CC1c2ccccc2CC1NCC(O)c1ccc(O)c2[nH]c(=O)ccc12 (mixture of isomers) [Example 4, 8-Hydroxy-5-[R-1-hydroxy-2-(1R,2S-1-methylindan-2-ylamino)ethyl]-1H-quinolin-2-one and 8-hydroxy-5-[R-1-hydroxy-2-(1S,2R-1-methylindan-2-ylamino)ethyl]-1H-quinolin-2-one]	–	–
3 nM	4 nM	O=c1ccc2c([C@@H](O)CN[C@H]3Cc4ccc(-c5ccco5)cc4C3)ccc(O)c2[nH]1 [Example 139, 5-[R-2-(S-5-(Furan-2-yl)indan-2-ylamino)-1-hydroxyethyl]-8-hydroxy-1H-quinohnl-2-one]	–	–

The next lines start with the compound.

Compound	Ki [1]	Ki [2]	Ki [1, 3]	Ki [2, 4]
5-[R-2-(1R,2R-2-Benzylcyclopentylamino)-1-hydroxyethyl]-8-hydroxy-1H-quinolin-2-one [Example 35]	–	–	0.4 nM	6 nM
5-[R-2-((3aS,5R,6aR)-2-Butyloctahydrocyclopenta[c]pyrrol-5-ylamino)-1-hydroxyethyl]-8-hydroxy-1H-quinolin-2-one and 5-[R-2-((3aS,5S,6aR)-2-butyloctahydrocyclopenta[c]pyrrol-5-ylamino)-1-hydroxyethyl]-8-hydroxy-1H-quinolin-2-one [Example 85]	–	–	121 nM	380 nM
O=c1ccc2c(C(O)CNC3CCCC3C3CCCCC3)ccc(O)c2[nH]1 (mixture of isomers) [Example 33, 5-[R-2-(1S,2S-2-Cyclohexylcyclopentylamino)-1-hydroxyethyl]-8-hydroxy-1H-quinolin-2-one and 5-[R-2-(1R,2R-2-cyclohexylcyclopentylamino)-1-hydroxyethyl]-8-hydroxy-1H-quinolin-2-one]	48 nM	491 nM	–	–
O=c1ccc2c([C@@H](O)CN[C@@H]3CCc4ccccc43)ccc(O)c2[nH]1 [Example 1, 8-Hydroxy-5-[R-1-hydroxy-2-(R-indan-1-ylamino)ethyl]-1H-quinolin-2-one]	26 nM	186 nM	–	–
CCC1=C(CC)CC2=C(C1)CC(NC[C@H](O)c1ccc(O)c3[nH]c(=O)ccc13)C2 [Example 30, 5-[R-2-(5,6-Diethyl-2,3,4,7-tetrahydro-1H-inden-2-ylamino)-1-hydroxyethyl]-8-hydroxy-1H-quinolin-2-one]	77 nM	132 nM	–	–
COCC1(NC[C@H](O)c2ccc(O)c3[nH]c(=O)ccc23)Cc2ccccc2C1 [Example 55, 8-Hydroxy-5-[R-1-hydroxy-2-(2-methoxymethylindan-2-ylamino)-ethyl]-1H-quinolin-2-one]	128 nM	384 nM	–	–

— US7745462B2, “Quinoline-2-one derivatives for the treatment of airways diseases” (Novartis AG, priority 2003, dated 2010)
